Laboratory results as given in article PMC8049018, “A MIF‐Derived Cyclopeptide that Inhibits MIF Binding and Atherogenic Signaling via the Chemokine Receptor CXCR2” (Chembiochem, 2020).
Bridge positions count the residues as written; N and C are the ends. Ends that are not written are not given here. Peptide text beside a SMILES is read from it. Fluos = 5(6)-carboxyfluorescein

Columns and labels:
[1] = target: T1, Alexa‐488‐labeled recombinant MIF (Alexa‐MIF) (Homo sapiens, UniProt P14174); assay: Fluorescence spectroscopic titration of Alexa-MIF with peptide; type: binding; details: Alexa-MIF 10 nM, peptide 0.1- to 1000-fold molar excess, 10 mM sodium phosphate pH 7.4, 1 % HFIP, RT, emission at 519 nm, three titrations
T1 construct: made in house
T1 sequence (P14174 1-115): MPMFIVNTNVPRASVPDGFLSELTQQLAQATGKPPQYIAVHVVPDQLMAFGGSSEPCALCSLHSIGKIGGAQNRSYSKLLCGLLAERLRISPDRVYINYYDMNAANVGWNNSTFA
Description: Fluorescence spectroscopy: Fluorescence spectroscopic titrations were performed on a Jasco FP‐6500 spectrofluorometer. Alexa Fluor‐488‐labelled rMIF (Alexa‐MIF) was reconstituted in 20 mM sodium phosphate buffer (pH 7.2). […] The excitation wavelength was set at 492 nm and fluorescence emission spectra were recorded between 500 and 600 nm within 2–3 min after the preparation of the mixtures at room temperature (RT).

CXCR2 [2] = target: T2, CXCR2 (Homo sapiens, UniProt P25025); assay: Label-free dynamic mass redistribution (DMR), HEK293-CXCR2 transfectants; type: cell-based; details: peptide 500 μM (MIF(47–56) also 100–500 μM), 30 s intervals
T2 construct: expressed in transfected cells
T2 sequence (P25025 1-360): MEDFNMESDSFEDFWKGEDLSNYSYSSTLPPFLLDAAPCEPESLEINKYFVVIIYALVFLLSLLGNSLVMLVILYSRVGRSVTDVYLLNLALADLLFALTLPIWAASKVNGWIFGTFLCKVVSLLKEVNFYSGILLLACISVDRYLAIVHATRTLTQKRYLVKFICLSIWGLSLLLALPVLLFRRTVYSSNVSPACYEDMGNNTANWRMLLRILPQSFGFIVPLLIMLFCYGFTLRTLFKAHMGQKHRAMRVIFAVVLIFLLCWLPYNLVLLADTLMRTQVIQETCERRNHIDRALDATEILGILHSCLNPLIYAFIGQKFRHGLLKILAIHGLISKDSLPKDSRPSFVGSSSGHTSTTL
Description: Label‐free dynamic mass redistribution: Dynamic mass redistribution (DMR) analysis ^[22] was performed according to Perkin Elmer's instructions for label‐free DMR measurements. Briefly, cells were seeded at a density of 40 000 cells per well of an EnSpire label‐free 96‐well fibronectin‐coated cell assay microplate (PerkinElmer). Post‐seeding, the cells were equilibrated at RT for 30 min and cultivated overnight in serum‐containing DMEM/F‐12 medium. The next day, the cells were washed four times with assay buffer containing 20 mM HEPES and 1 % DMSO in HBSS (pH 7.4), using an aspiration wand leaving a residual volume of 35 μL. The plate was equilibrated at RT for 2 h. […] Before adding the peptides, baseline measurements were performed for 10 min (30 s intervals) using the EnSpire Label‐free Multimode Plate Reader (PerkinElmer). Then, 20 μL of the respective peptides were added to the cells at a final concentration of 500 μM followed by real‐time measurements over a time period of 40 min (30 s intervals). The signal output represents a cumulative response overlay of all cells.

[3] = system: Primary human monocytes (MIF/CXCR2 axis); assay: Transwell migration assay, MIF-induced monocyte chemotaxis; type: cell-based; details: peptide 5 μM, human MIF 8 nM, Transwell 5 μm pores, 3 h, 37 °C, n=3–11
Description: Transwell migration assay: The inhibitory potential of the MIF‐derived peptide analogues was measured by Transwell chemotaxis assay using CD14^+ monocytes isolated from PBMCs or the entire PBMC fraction, as previously described. ^[7a] Briefly, PBMCs from buffy coats or CD14+ monocytes isolated from PBMCs were diluted in RPMI1640 supplemented with 0.5 % bovine serum albumin (BSA) at a density of […] cells/mL. Cells were placed into the upper chamber of a 24‐well cell culture inserts with 5 μm pore size (Corning). 8 nM full‐length MIF served as chemoattractant and was pre‐incubated with or without 5 μM of the respective peptides and applied to the lower chamber. After a 3 h migration interval at 37 °C (5 % CO2), cells were collected and counted via a CASY Cell Counter (OLS, OMNI Life Science, Bremen, Germany).

[4] = Proteolytic stability assay in human plasma; type: in vitro ADME; details: 37 °C; for half-life: human plasma (citrate-anticoagulated), human plasma (citrate 10 mM, pH 7.0), peptide 200–500 μg/mL, TCA stop, intact peptide by C18 RP-HPLC (214 nm) peak area, MALDI-MS verified, three independent incubations, read-out: t1/2 in human blood plasma (converted)
Description: Proteolytic stability assay: Proteolytic stability studies of peptides were performed following a previously described experimental protocol.[ ^20 , ^23 ] Briefly, peptides were incubated (200–500 μg/mL) in human plasma, isolated from the blood of healthy volunteers by routine methods using citrate (10 mM, pH 7.0) as an anti‐coagulant, at 37 °C for various time intervals. At the end of each interval, a stop solution (1 : 1) containing aqueous trichloroacetic acid (TCA, 10 %, v/v) was added and the samples kept on ice for 10 min. Samples were centrifuged at 20 000 g for 4 min, the supernatants retrieved and mixed 1 : 2 with a solution of 80 % HPLC buffer B (0.05 % (v/v) TFA in 90 % (v/v) CH3CN in water) and 20 % HPLC buffer A (0.058 % (v/v) TFA in water). Samples were analyzed by RP‐HPLC (detection at 214 nm) using a Nucleosil 100 C18 column (Grace; length 33 mm, i.d. 8 mm, 7 μm particle size). ^[24] The flow rate was 2 mL/min and the samples were analyzed with an elution program consisting of 2 steps; first step: 10 % HPLC buffer B in buffer A (1 min) and second step: a gradient from 10 to 90 % HPLC buffer B in buffer A (6 min). Peaks were collected, immediately frozen, lyophilized, and their molecular weights determined by MALDI‐MS. The HPLC peak areas were used to quantify remaining peptides in plasma.

[5] = CD concentration dependence study; type: physicochemical; details: between 5 and 100 μM
Excerpt: Peptides: Linear MIF‐derived peptides were generated by standard Fmoc‐based solid phase peptide synthesis (SPPS) in their N‐terminally acetylated and C‐terminally amidated forms and purified by reversed‐phase (RP)‐HPLC as previously described. ^[18] 5(6)‐Carboxyfluorescein (Fluos) N‐terminally labeled peptides were synthesized as described. ^[19] Peptide purity was verified by matrix‐assisted laser desorption ionization mass spectrometry (MALDI‐MS). Cyclic peptide derivatives MIF(cyclo0), MIF(cyclo4), MIF(cyclo6), and MIF(cyclo10), containing terminal cysteines and different numbers of glycine and serine spacer residues to tailor ring size, were custom‐synthesized and purified (>96 % purity grade) by American Peptide Company (APC), Inc./Bachem (Bubendorf, Switzerland), or as described previously, ^[20] applying standard disulfide‐based oxidation procedures. […] The sequence of the scrambled control peptide of MIF(47–56) is […].
Circular dichroism spectroscopy: CD spectra were recorded on a Jasco J‐715 spectropolarimeter in a wavelength range between 190 and 250 nm. Spectra were measured at 0.1 nm intervals and a response time of 1 s. […] Each spectrum was measured three times, averaged and smoothed after background subtraction of the buffer. […]

CXCR2 [6] = target: T2, CXCR2; assay: Receptor binding assay, flow cytometry, HEK293-CXCR2 vs HEK293-WT; details: 3.7 or 7.4 μM, on ice 2 h, HEK293-CXCR2 compared to non-transfected HEK293, flow cytometry, n=4–7

With Ac-LMAFGGSSEP-NH2 [MIF(47–56)] the “Direct binding to MIF” value [1] was “does not directly bind to MIF”, the “CXCR2-binding response (change of resonant wavelength Δpm)” value (CXCR2 [2]) was “found to bind to HEK293‐CXCR2 transfectants” and the “Inhibition of MIF-induced monocyte chemotaxis” value [3] was “significantly inhibited”. The half-life [4] was ~30 min and the “Concentration dependence of CD spectra (solubility/aggregation check)” value [5] was “no concentration dependence of the CD spectra”.

In the case of “Ac-SFESGPAGML-NH2 [scrambled control sequence, reference compound]”, the “CXCR2-binding response (change of resonant wavelength Δpm)” value (CXCR2 [2]) is reported as “fully abrogated”.

In the case of “Fluos‐MIF(47–56): fluorescently labeled MIF(47–56), 5(6)‐carboxyfluorescein at the N-terminus (Fluos-MAFGGSSEPC; UniProt P14174 48-57, looked up, fragment)”, the “Binding to cell surface-expressed CXCR2 (MFI)” value (CXCR2 [6]) is reported as “specifically bound to full‐length CXCR2”.

For `CSCC[C@@H]1NC(=O)[C@H](CC(C)C)NC(=O)CNC(=O)CNC(=O)[C@H](CO)NC(=O)CNC(=O)CNC(=O)[C@@H](N)CSSC[C@@H](C(=O)O)NC(=O)CNC(=O)CNC(=O)[C@H](CO)NC(=O)CNC(=O)CNC(=O)[C@@H]2CCCN2C(=O)[C@H](CCC(=O)O)NC(=O)[C@H](CO)NC(=O)[C@H](CO)NC(=O)CNC(=O)CNC(=O)[C@H](Cc2ccccc2)NC(=O)[C@H](C)NC1=O` [MIF(cyclo10)] (H-CGGSGGLMAFGGSSEPGGSGGC-OH; disulfide 1-22), the half-life [4] was > 480 min, the “Time up to which appreciable amounts of intact peptide were detectable” value ([4]; human plasma, C18 HPLC and MALDI-MS) was “up to 48 h” and the “Resistance to proteolysis relative to MIF(47–56)” value ([4]; human plasma, ratio of t1/2) was “more than 16 fold”. For the same molecule, the “Concentration dependence of CD spectra (solubility/aggregation check)” value [5] was “no concentration dependence of the CD spectra”.
